Measured values published in ChEMBL document CHEMBL4007464, “Lead Development of Thiazolylsulfonamides with Carbonic Anhydrase Inhibitory Action” (J Med Chem, 2017).
pIC50, pKi: −log10 of the molar value.

Legend:
Carbonic anhydrase 9 = Carbonic anhydrase 9 (Homo sapiens, UniProt Q16790); assay: Inhibition of recombinant human Carbonic anhydrase 9 assessed as reduction in CO2 hydration preincubated for 15 mins prior to testing measured for 10 to 100 secs by stopped-flow assay
[1] = molecular target: Carbonic anhydrase 5A, mitochondrial (Homo sapiens, UniProt P35218); assay: Inhibition of recombinant human Carbonic anhydrase 5A assessed as reduction in CO2 hydration preincubated for 15 mins prior to testing measured for 10 to 100 secs by stopped-flow assay
Carbonic anhydrase 5A, mitochondrial, sequence (P35218 whole entry): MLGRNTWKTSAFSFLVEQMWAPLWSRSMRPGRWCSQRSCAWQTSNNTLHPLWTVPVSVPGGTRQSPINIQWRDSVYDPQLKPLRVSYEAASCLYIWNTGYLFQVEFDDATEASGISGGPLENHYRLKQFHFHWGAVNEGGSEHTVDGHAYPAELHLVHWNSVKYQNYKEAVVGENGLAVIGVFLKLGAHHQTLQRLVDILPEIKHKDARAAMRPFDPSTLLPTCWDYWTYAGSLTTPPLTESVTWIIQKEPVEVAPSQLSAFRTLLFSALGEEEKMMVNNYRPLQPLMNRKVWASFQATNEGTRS

[2] = molecular target: Carbonic anhydrase 5B, mitochondrial (Homo sapiens, UniProt Q9Y2D0); assay: Inhibition of recombinant human Carbonic anhydrase 5B assessed as reduction in CO2 hydration preincubated for 15 mins prior to testing measured for 10 to 100 secs by stopped-flow assay
Carbonic anhydrase 5B, mitochondrial, sequence (Q9Y2D0 whole entry): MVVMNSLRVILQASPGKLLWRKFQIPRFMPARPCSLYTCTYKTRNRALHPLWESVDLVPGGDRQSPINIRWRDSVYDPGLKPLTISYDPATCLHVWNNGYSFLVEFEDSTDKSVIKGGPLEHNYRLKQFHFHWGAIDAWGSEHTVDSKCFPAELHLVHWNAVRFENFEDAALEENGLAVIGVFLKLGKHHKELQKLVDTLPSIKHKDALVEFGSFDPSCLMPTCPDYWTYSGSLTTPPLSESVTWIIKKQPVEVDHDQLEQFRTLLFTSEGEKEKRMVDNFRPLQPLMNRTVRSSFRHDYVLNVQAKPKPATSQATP

Carbonic anhydrase 2 = Carbonic anhydrase 2 (Homo sapiens, UniProt P00918); assay: Inhibition of recombinant human Carbonic anhydrase 2 assessed as reduction in CO2 hydration preincubated for 15 mins prior to testing measured for 10 to 100 secs by stopped-flow assay
Carbonic anhydrase 12 = Carbonic anhydrase 12 (Homo sapiens, UniProt O43570); assay: Inhibition of recombinant human Carbonic anhydrase 12 assessed as reduction in CO2 hydration preincubated for 15 mins prior to testing measured for 10 to 100 secs by stopped-flow assay
Carbonic anhydrase 12, sequence (O43570 whole entry): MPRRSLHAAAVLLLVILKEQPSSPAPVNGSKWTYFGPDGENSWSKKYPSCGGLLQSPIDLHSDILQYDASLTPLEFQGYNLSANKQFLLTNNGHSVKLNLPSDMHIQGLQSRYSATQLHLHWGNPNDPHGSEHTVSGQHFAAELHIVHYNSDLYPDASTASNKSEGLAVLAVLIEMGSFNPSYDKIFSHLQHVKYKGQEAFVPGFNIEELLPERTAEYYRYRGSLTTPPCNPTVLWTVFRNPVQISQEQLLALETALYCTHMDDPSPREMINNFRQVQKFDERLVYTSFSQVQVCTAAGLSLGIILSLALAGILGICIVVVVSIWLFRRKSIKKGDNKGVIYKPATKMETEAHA

Carbonic anhydrase 1 = Carbonic anhydrase 1 (Homo sapiens, UniProt P00915); assay: Inhibition of recombinant human Carbonic anhydrase 1 assessed as reduction in CO2 hydration preincubated for 15 mins prior to testing measured for 10 to 100 secs by stopped-flow assay
Carbonic anhydrase 1, sequence (P00915 whole entry): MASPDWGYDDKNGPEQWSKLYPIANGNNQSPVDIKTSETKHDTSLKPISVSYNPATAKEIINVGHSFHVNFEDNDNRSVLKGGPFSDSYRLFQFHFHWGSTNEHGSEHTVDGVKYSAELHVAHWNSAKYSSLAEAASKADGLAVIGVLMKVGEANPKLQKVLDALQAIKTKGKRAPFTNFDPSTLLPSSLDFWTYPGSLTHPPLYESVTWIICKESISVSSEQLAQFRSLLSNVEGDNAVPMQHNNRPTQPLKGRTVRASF

[3] = Inhibition of carbonic anhydrase in mouse whole blood assessed as reduction in CO2 hydration preincubated for 15 mins prior to testing measured for 10 to 100 secs by stopped-flow assay
[4] = Inhibition of carbonic anhydrase in rat whole blood assessed as reduction in CO2 hydration preincubated for 15 mins prior to testing measured for 10 to 100 secs by stopped-flow assay
[5] = Inhibition of carbonic anhydrase in human whole blood assessed as reduction in CO2 hydration preincubated for 15 mins prior to testing measured for 10 to 100 secs by stopped-flow assay

With `Cc1nc(N(C)C(=O)Cc2ccc(-c3ccccc3F)cc2)sc1S(N)(=O)=O` as the compound, how does the pKi (Carbonic anhydrase 9) read?
Its pKi is 8.00.

With `Cc1nc(N(C)C(=O)Cc2ccc(-c3cc(F)ccc3F)cc2)sc1S(N)(=O)=O` as the compound, how does the pKi (Carbonic anhydrase 9) read?
The pKi was 7.29.

With `Cc1nc(N(C)C(=O)Cc2ccc(-c3cccc(F)c3)cc2)sc1S(N)(=O)=O` as the compound, how does the pKi (Carbonic anhydrase 9) read?
Its pKi is 9.05.

With `CN(C(=O)Cc1ccc(-c2ccccn2)cc1)c1nc(CO)c(S(N)(=O)=O)s1` as the compound, how does the pKi (Carbonic anhydrase 9) read?
Its pKi is 7.37.

With `Cc1nc(N(C)C(=O)Cc2ccc(-c3cnccn3)cc2)sc1S(N)(=O)=O` as the compound, how does the pKi (Carbonic anhydrase 9) read?
Its pKi is 7.16.

Which results are given for `Cc1nc(N(C)C(=O)Cc2ccc(-c3ccccn3)cc2)sc1S(N)(=O)=O`?
pKi [1]: 6.09; pKi [2]: 6.60; pKi (Carbonic anhydrase 2): 7.85; pKi (Carbonic anhydrase 12): 7.21; pKi (Carbonic anhydrase 9): 6.33; pKi (Carbonic anhydrase 1): 6.58

With `CNS(=O)(=O)c1sc(N(C)C(=O)Cc2ccc(-c3ccccc3F)cc2)nc1C` as the compound, how does the pKi (Carbonic anhydrase 9) read?
The pKi was 7.59.

With `Cc1nc(N(C)C(=O)Cc2ccc(-c3ccccc3)cc2)sc1S(=O)(=O)NCCO` as the compound, how does the pKi (Carbonic anhydrase 9) read?
The pKi was 7.35.

With `COc1c(F)cccc1-c1ccc(CC(=O)N(C)c2nc(C)c(S(N)(=O)=O)s2)cc1` as the compound, how does the pKi (Carbonic anhydrase 9) read?
The pKi was 7.66.

With `Cc1nc(N(C)C(=O)Cc2ccc(-c3ccccc3)cc2)sc1S(N)(=O)=O` as the compound, how does the pKi (Carbonic anhydrase 9) read?
The pKi was 9.05.

With `Cc1nc(N(C)C(=O)Cc2ccc(-c3cccc[n+]3C)cc2)sc1S(N)(=O)=O` as the compound, how does the pKi (Carbonic anhydrase 9) read?
The pKi was 6.58.

With `Cc1nc(N(C)C(=O)Cc2ccc(-c3ccccn3)cc2)sc1S(N)(=O)=O` [PRITELIVIR] as the compound, how does the pKi [1] read?
The pKi was 6.32.

And the pIC50 [3]?
The pIC50 was 6.87.

And the pIC50 [4]?
Its pIC50 is 6.94.

And the pKi [2]?
The pKi was 6.41.

And the pKi (Carbonic anhydrase 2)?
Its pKi is 7.89.

And the pIC50 [5]?
The pIC50 was 7.19.

What about the pKi (Carbonic anhydrase 12) of the same compound?
Its pKi is 7.11.

And the pKi (Carbonic anhydrase 9)?
The pKi was 7.09.

And the pKi (Carbonic anhydrase 1)?
Its pKi is 6.49.

With `CNS(=O)(=O)c1sc(N(C)C(=O)Cc2ccc(-c3ccccc3)cc2)nc1C` as the compound, how does the pKi (Carbonic anhydrase 9) read?
Its pKi is 7.39.

With `CNS(=O)(=O)c1sc(N(C)C(=O)Cc2ccc(-c3ccccn3)cc2)nc1C` as the compound, how does the pKi (Carbonic anhydrase 9) read?
Its pKi is 7.61.

With `CNS(=O)(=O)c1sc(N(CCN(C)C)C(=O)Cc2ccc(-c3ccccc3)cc2)nc1C` as the compound, how does the pKi (Carbonic anhydrase 9) read?
Its pKi is 7.85.

With `Cc1nc(N(CCN(C)C)C(=O)Cc2ccc(-c3ccccc3)cc2)sc1S(N)(=O)=O` as the compound, how does the pKi (Carbonic anhydrase 9) read?
Its pKi is 7.66.

With `CCc1nc(N(C)C(=O)Cc2ccc(-c3ccccn3)cc2)sc1S(N)(=O)=O` as the compound, how does the pKi (Carbonic anhydrase 9) read?
The pKi was 7.55.

With `Cc1nc(N(C)C(=O)Cc2ccc(-n3cccn3)cc2)sc1S(N)(=O)=O` as the compound, how does the pKi (Carbonic anhydrase 9) read?
Its pKi is 7.46.

With `Cc1nc(N(C(=O)Cc2ccc(-c3ccccc3)cc2)C2CC2)sc1S(N)(=O)=O` as the compound, how does the pKi (Carbonic anhydrase 9) read?
Its pKi is 9.00.
